These results are taken from patent US20160082133A1, “CHEMICAL EXCHANGE SATURATION TRANSFER (CEST) BASED MRI USING REPORTER GENES AND SUBSTRATES AND METHODS THEREOF” (The Johns Hopkins University, priority 2013, published 2016).

Where “and” joins values, the source holds several entries; their conditions need not be identical. Equal values may be shown once.

The subject of one data set is HEK293. Nature of the data set: CEST MRI of HEK293 cells expressing hPRM1 (lysate and encapsulated live cells). In kind it is cell-based, Human. The procedure: CEST experiments were performed on an 11.7T Bruker Avance system, as previously described. A modified RARE (TR/TE=6000/9.4 ms), including a magnetization transfer module (B1=4.7 μT/4000 ms), was used to acquire CEST-weighted images. The absolute water resonant frequency shift was measured using a modified WASSR method, with the same parameters as in CEST imaging, except for TR=1.5 sec and a saturation pulse of B1=0.5 μT/250 ms, which was used for B0 correction for each voxel using MatLab. MTR asymmetry (MTRasym)=100×(S−Δω−S+Δω)/S0 was computed at different offsets, Δω. Human Embryonic Kidney cells (HEK293), were engineered to express the gene encoding to hPRM1 (NM_002761; 293^hPRM1). Non-expressing wild type cells (293^wt) were used as controls. The cells were lysed or encapsulated in alginate-based microcapsules using Ba^2+ ions as the gelating cation (Barnett, B. P., et al. Nat Protoc 6, 1142-1151 (2011)).

In another data set the test system is 293^HSV1-tk cells. Kind of data set: Cell viability assay (CellTiter-Blue). As to conditions: 0.5 mg/ml. In kind it is cell-based, human. As for the experimental part:
Cell viability assay was performed using CellTiter-Blue® Cell Viability Assay (Promega), which provides a fluorometric method for estimating the number of viable cells present in 96 well plate. HEK293FT cells transduced with the HSV1-tk (293^HSV1-tk) were plated in 96 well-plate (10,000 cells/well). Cells were incubated for a periods of 4 hours and 24 hours in the presence of ganciclovir (GCV, 0.5 mg/ml in cell medium), compound 2 (0.5 mg/ml in cell medium) and medium (as control). CellTiter-Blue® Reagent was added (20 μl/well) and plate was incubated for 3 hours at 37° C. Finally, fluorescence 560/590 nm was recorded and values obtained from probe containing wells (GCV or 2, N=4) were normalized to values of non-treated cells (control wells) to determine the % of viable cells after the incubation period.
In general terms: Alamar Blue is a resazurin reagent that responds to reducing activity.

The nature of data set [1]: Quantification of exchange rates (QUESP, Bloch equation fitting). In kind it is physicochemical. As to conditions: 11.7 T, pH 7.4, 37° C.; for kex, quantified exchange rates of imino and water protons: 5 ppm for 1-3, 6 ppm for dT. The procedure: Exchange rates were quantified with the saturation power dependent CEST approach (QUESP) and Bloch equation fitting (McMahon et al., Magn. Res. Med. 2006, 55, 836). For each sample, the MTRasym was measured at the imino resonance frequency for CEST saturation fields of 43, 85, 128, 170, 213, 255, 340, and 426 Hz while the saturation pulse duration was kept constant at 4000 ms. The Bloch equations were then fit numerically to these MTRasym values using MATLAB (Mathworks), and the exchange rates (kex, s^−1) were determined from the fits. Errors (95% confidence limits) were estimated using the F statistic.

Data set [2] in a line: In vitro CEST-MRI of thymidine analogues at 11.7 T. In kind it is physicochemical. The settings on record: pH 7.4, 37° C.; for MTRasym (8.5 Hz) / MTRasym (170 Hz) / MTRasym (213 Hz): at 5 ppm for 20 nM agent (so in the source); for MTRasym (128 Hz): at 5 ppm for 20 mM agent. As for the experimental part:
All compounds were dissolved at a concentration of 20 mM in phosphate-buffered saline (PBS) (pH=7.4) and placed in microcapillaries, as described previously.^17 CESTMRI experiments were performed on a vertical 11.7 T scanner (Bruker Avance system) at 37° C. A modified RARE sequence (TR/TE=10 000/9.4 ms; RARE factor=16; 1 mm slice thickness; FOV=11×11 mm^2; matrix size=64×32; resolution=0.17×0.34 mm^2; and NA=2) including a magnetization transfer (MT) module ([…]) was used to acquire CEST-weighted images from −8 to +8 ppm with increments of 0.2 ppm around the water resonance, which was assigned to be at 0 ppm. Pixel-based B0 correction was used as described before using the same parameters as above except for TR=1500 ms and B1/tsat=21 Hz/500 ms, with a sweep range from −2 to +2 ppm (0.1 ppm steps). Data processing was performed using custom-written scripts in MATLAB (Mathworks). Mean CEST spectra were plotted from an ROI for each sample, after B0 correction. MTRasym=100×(S^−Aω−S^AωA/^‘−’0)/3 was computed at different offsets Aω.

Data set [3] is described as follows: CEST MRI of CDase substrates and products at 9.4 T. It is filed as physicochemical. The settings on record: pH 7.4, 37° C. The text has this:
All MR images were acquired with a 9.4T Bruker Avance system equipped with a 15 mm sawtooth RF coil. A modified RARE sequence (TR=6.0 sec, effective TE=43.2 ms, RARE factor=16, slice thickness=0.7 mm, FOV=14×14 mm, matrix size=128×64, resolution=0.11×0.22 mm^2, and NA=2) including a magnetization transfer (MT) module (one CW pulse, B=[…] (150 Hz), 3 sec) was used to acquire CEST-weighted images from −6 ppm to 6 ppm (step=0.2 ppm) around the water resonance (0 ppm). The absolute water resonant frequency shift was measured using a Water Saturation Shift Reference (WASSR) (Kim, M. et al. Magnetic Resonance in Medicine 2009, 61, 1441) method modified (Liu, G. et al. Contrast Media Mol Imaging 2010, 5, 162) with Lorentzian analysis. […]
Data processing was performed using custom-written scripts in MATLAB (Mathworks, Waltham, Mass.). CEST spectra were calculated from the mean of an ROI placed over each sample after B0 correction of the contrast on a per voxel basis. The CEST signal was quantified using MTRasym at specific offsets of interest (i.e., &ω=+2 ppm for cytosine or +2.4 ppm for 5FC) using the definition: MTRasym=(S^−˜ω−S^+″ω)/S0, where and s[−˜ω, +Aω] is the water signal intensity in the presence of a saturation pulse at offsets ±Aω, and S0 is water signal intensity in the absence of a saturation pulse.

Data set [4] is described as follows: CEST-MRI of LRRASLG and LRRApSLG peptides in PBS. As to conditions: 1 mM, PBS pH 7.4, 11.7T. It is filed as physicochemical. The procedure: Peptides were synthesized by NeoBioSci (Cambridge, Mass.) and provided as lyophilized powder. All compounds were dissolved in 10 mM PBS (pH 1/4 7.4) at the indicated concentration.
(§1) CEST MRI experiments were performed on a vertical 11.7T Bruker Avance system. Approximately […] of each sample was loaded into a capillary tube and up to 20 samples were scanned at each session to minimize variability as described before (Liu G et al., High-throughput screening of chemical exchange saturation transfer MR contrast agents. Contrast Media Mol Imaging 2010; 5:162-17). […] To account for inhomogeneity of the B0 field, the absolute water resonant frequency shift was measured using a modified water saturation shift reference method (Kim M et al., Water saturation shift referencing (WASSR) for chemical exchange saturation transfer (CEST) experiments. Magn Reson Med 2009; 61:1441-1450), using the same parameters as in CEST imaging except pulse repetition time 1/4 1.5 s, saturation pulse 1/4 500 ms, B1 1/4 […], and a sweep range from −2 to +2 ppm (step 1/4 0.1 ppm). […] After B0 correction for each voxel using the water saturation shift reference data, mean CEST-spectra were calculated from a region of interest (ROI) for each sample. […]

For a further data set, the target named is T1, PKA (Mus musculus, UniProt P05132).
T1 construct: purchased New England Biolabs
Kind of data set: Phosphorylation assay with recombinant PKA read out by CEST MRI. The settings on record: 1 mM peptide. In kind it is biochemical. The procedure: as §1, with “sample. The MTR asymmetry was quantified as MTRasym 1/4 (S^−Δω−S^+Δω)/S^0 (S^−Δω and S^+Δω are the water peak differentials due to saturation at the target frequency +ω and its negative −ω, respectively. S^0 is the unsaturated signal).” for “sample.”

Consider “hPRM1: arginine-rich protein human protamine-1 (NM_002761) expressed as CEST reporter (ARYRCCRSQSRSRYYRQRQRSRRRRRRSCQTRRRAMRCCRPRYRPRCRRH; UniProt P04553 2-51, looked up)”, for which the “CEST contrast of encapsulated live cells compared to non-expressing wild type cells” value in the data set on HEK293 (alginate microcapsules, 1.3 ppm and 3.6 ppm offsets) is “higher”. Further, the “CEST contrast of 293^hPRM1 lysate compared to wild type lysate” value with HEK293 (cell lysate) is reported as “significantly higher CEST contrast”.

For `Nc1nc(O)c2ncn(COC(CO)CO)c2n1` [GCV, ganciclovir, reference compound], the “toxic effect on 293^HSV1-tk cells” value in the data set with 293^HSV1-tk cells (4 and 24 hours) was “cytotoxic effect”. In addition, in the data set on 293^HSV1-tk cells (24 hour, 293^HSV1-tk), the cells killed entry is on record as “about 50%”.

Turning to `CC1(O)C(=O)NC(=O)N([C@H]2C[C@H](O)[C@@H](CO)O2)C1O` (stereo partly shown) [Compound 3, thymidine glycol], in data set [1], the “kex of the imino proton” value was 3.7±0.2×10^3 s^−1 and 5.1±0.7×10^3 s^−1; the “kex, quantified exchange rates of imino and water protons” value is recorded as 3.8 ± 0.2 ×10^3 s^−1. In data set [2], the “MTRasym (8.5 Hz)” value was determined as 3%, the “MTRasym (170 Hz)” value is on record as 11%, the “MTRasym (213 Hz)” value stood at 16% and the “MTRasym (128 Hz)” value came out at 7%.

`O=c1[nH]cc(F)c(=O)[nH]1` [5FU, 5-fluorouracil]: in data set [3], the “MTRasym (CEST contrast)” value is “only limited and non-frequency-specific MTRasym”.

As to LRRASLG, the “CEST contrast of unphosphorylated versus phosphorylated peptide” value in data set [4] is “significantly higher contrast”. In addition, in the data set with PKA (4 mM ATP, 30° C.), the “decrease in CEST contrast on incubation with recombinant PKA” value is above 50%. Besides, the “time in which the majority of the signal difference is generated” value in the data set with PKA (recombinant PKA) was at most 15 min.

`O=c1[nH]c(=O)n([C@H]2C[C@H](O)[C@@H](CO)O2)cc1Cl` [Compound 4, 5-chloro-2′-deoxyuridine]: the “CEST contrast from the imino proton” value in data set [2] was “No CEST contrast was observed”.

Turning to `O=c1cc[nH]c(=O)[nH]1` [uracil], the “MTRasym (CEST contrast)” value in data set [3] is “only limited and non-frequency-specific MTRasym”.

On to `Cc1cn([C@H]2C[C@H](O)[C@@H](CO)O2)c(=O)[nH]c1=O` [dT, Thymidine, reference compound], for which, in data set [1], the “kex of the imino proton” value was 3.7±0.2×10^3 s^−1; the “kex, quantified exchange rates of imino and water protons” value is reported as 5.1 ± 0.7 ×10^3 s^−1. Besides, in data set [2], the “MTRasym (8.5 Hz)” value is 2%, the “MTRasym (170 Hz)” value worked out at 10%, the “MTRasym (213 Hz)” value is 15% and the “MTRasym (128 Hz)” value was found to be 5%.
